Measured values taken from patent US6241963A, “Dopamine and serotonin transporter ligands and imaging agents” (priority 1996, dated 2001).
pKd, pKi: −log10 of the molar value. Where “and” joins values, the source holds several entries; their conditions need not be identical. Identical values can stand only once. Like-named read-outs stand apart in the source and are kept apart here.

Key:
[1] = target: T1, rat striatal homogenates (dopamine transporter) (Rattus norvegicus, UniProt P23977); experiment: In vitro binding with rat striatal homogenates using [^125 I]IPT as the ligand; settings: for pKi: [^125 I]IPT as ligand
T1 construct: from tissue; host or cells: rat striatum homogenate
T1 sequence (P23977 whole entry): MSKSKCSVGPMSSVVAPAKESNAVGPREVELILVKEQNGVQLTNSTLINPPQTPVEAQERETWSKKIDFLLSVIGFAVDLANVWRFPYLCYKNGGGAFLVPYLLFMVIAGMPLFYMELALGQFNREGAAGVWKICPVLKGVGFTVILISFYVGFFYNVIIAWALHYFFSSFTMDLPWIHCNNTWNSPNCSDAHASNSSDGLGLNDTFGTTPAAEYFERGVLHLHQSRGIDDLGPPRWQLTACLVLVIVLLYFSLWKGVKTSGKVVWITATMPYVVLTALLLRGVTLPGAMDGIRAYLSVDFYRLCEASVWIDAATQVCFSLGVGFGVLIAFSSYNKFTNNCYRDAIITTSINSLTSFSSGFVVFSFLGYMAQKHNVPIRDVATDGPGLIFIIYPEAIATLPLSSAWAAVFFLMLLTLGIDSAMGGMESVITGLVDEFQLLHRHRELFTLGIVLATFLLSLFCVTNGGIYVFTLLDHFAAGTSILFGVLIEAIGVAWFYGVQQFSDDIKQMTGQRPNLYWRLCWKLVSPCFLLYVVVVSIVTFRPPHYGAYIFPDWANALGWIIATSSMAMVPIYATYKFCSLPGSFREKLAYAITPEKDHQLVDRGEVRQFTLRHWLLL

[2] = format: in vivo, Male Sprague-Dawley rats
Description: Male Sprague-Dawley rats (225-300 g) allowed free access to food and water were used for in vivo biodistribution studies. Kung, 1984, supra; Kung, 1985, supra. While under ether anesthesia, 0.2 mL of a saline solution containing 1.19a, 1.19b, 1.20a, 1.20b or 1.21 (50-100 μCi) was injected directly into the femoral vein of rats, and the rats were sacrificed by cardiac excision at various time points post-injection. The organs of interest were removed and weighed, and the radioactivity was counted with an automatic gamma counter (Packard 5000). The percentage dose per organ was calculated by a comparison of the tissue counts to suitably diluted aliquots of the injected material. Total activities of blood and muscle were calculated under the assumption that they were 7% and 40% of the total body weight, respectively.
(§1) The major criteria for determining the potential usefulness of in vivo dopamine transporter imaging agents are based on an animal biodistribution study. In this case, rats were used as an animal model. After an intravenous injection of the Tc-99m labeled compounds, the values of initial brain uptake (% dose/whole organ) at 2 minutes post intravenous injection are used to measure the ability to penetrate the intact blood-brain barrier. Compounds displaying higher brain uptake are the better agents (minimum requirement >0.1% dose in brain). The second criteria is the specific uptake in the striatum region of the brain, where dopamine transporters are located. The uptake value (% dose/gram) of the striatum (ST) is divided by the background area, cerebellum (CB; essentially devoid of dopamine transporter); the ratio of ST/CB is an indicator for specific uptake (minimum requirement for ST/CB >1.5). Five structurally similar tropane derivatives were examined in this biological study. (Tables 1.1 to 1.4).
Male Sprague-Dawley rats (225-300 g) that were allowed free access to food and water were used for in vivo biodistribution studies. (Kung, 1984, supra; Kung, 1985, supra). While under halothane anesthesia, 0.2 mL of a saline solution containing 3.24 to 3.34 ([…]) was injected directly into the femoral vein of rats, and they were sacrificed by cardiac excision at various time points post-injection. The organs of interest were removed and weighed, and the radioactivity was counted with an automatic gamma counter (Packard 5000). The percentage dose per organ was calculated by a comparison of the tissue counts to suitably diluted aliquots of the injected material. Total activities of blood and muscle were calculated under the assumption that they were 7% and 40% of the total body weight, respectively.

dopamine transporters [3] = target: T2, dopamine transporters (Rattus norvegicus, UniProt P23977); format: in vivo, Male Sprague-Dawley rats; settings: rats, iv
T2 sequence (P23977 whole entry): as above
Description: For dopamine transporter imaging agents, the target area of the brain is the striatum, where dopamine transporters are highly concentrated. The cerebellum region is suitable for use as the background region, because it has no dopamine transporters. The specific uptake is measured by the ratio of % dose/gram of striatum divided by % dose/gram of cerebellum (ST/CB ratio)--the higher the value, the better the specific uptake, and the more promising as a dopamine transporter imaging agent.
(§2) Regional brain distribution in rats was obtained after an injection of 1.19a, 1.19b, 1.20a, 1.20b or 1.21. Samples from different brain regions (cortex, striatum, hippocampus, and cerebellum) were dissected, weighed and counted, and the percentage dose per gram of sample was calculated by comparing the sample counts with the count of the diluted initial dose. The uptake ratio of each region was obtained by dividing the percentage dose per gram of that region by that of the cerebellum. For blocking studies, rats were injected with either β-CIT or haloperidol (iv, 1 mg/Kg) 5 min prior to injection of 1.19a. The rats were dissected and brain tissue samples were counted as described above. The specific uptake of the compound was expressed as ratio of ST/CB (% dose/g of striatum divided by the same of cerebellum).
as §1
as §2, with “3.24 to 3.34.” for “1.19a, 1.19b, 1.20a, 1.20b or 1.21.”, “3.25.” for “1.19a.”, “above.” for “above. The specific uptake of the compound was expressed as ratio of ST/CB (% dose/g of striatum divided by the same of cerebellum).”

[4] = Partition coefficient between 1-octanol (n-octanol) and buffer; format: physicochemical; settings: for Partition coefficient (P.C.), 1-octanol/pH 7.0 buffer: 1-octanol/pH 7.0 phosphate buffer
Description: (§3) Partition coefficients were measured by mixing each Tc-99m compound with 3 g each of 1-octanol and buffer (pH 7.0 or 7.4, 0.1 M phosphate) in a test tube. The test tube was vortexed for 3 minutes at room temperature, then centrifuged for 5 minutes. Two weighed samples (0.5 g each) from the 1-octanol and buffer layers were counted in a well counter. The partition coefficient was determined by calculating the ratio of cpm/g of octanol to that of buffer. Samples from the octanol layer were repartitioned until consistent partition coefficient values were obtained. The measurement was repeated 3 times.
as §3, with “The partition coefficient was measured” for “Partition coefficients were measured”, “mixing the” for “mixing each”, “3 min” for “3 minutes”

dopamine transporters [5] = settings: cited from earlier work
dopamine transporters [6] = target: T2, dopamine transporters; experiment: In vitro autoradiography of rat brain sections; format: binding, Male Sprague-Dawley rats; settings: rat brain coronal sections
Description: Male Sprague-Dawley rats ([…]) were sacrificed by decapitation, and the brains were removed, placed in OTC embedding medium (Miles Laboratory, Elkhart, Ind.) frozen in powdered dry ice. After equilibration to -15° C., 20 μm coronal sections were sliced on a cryostat (Hacker Instruments, Fairfield, N.J.), thaw mounted onto gelatin-coated slides, desiccated at 4° C. for 3 hours and kept at -70° C. until use. Prior to the experiment, the slides were dried at room temperature and preincubated for 30 minutes in buffer containing 50 mM Tris-HCl (pH 7.4, 120 mM NaCl). The slides were then incubated for 2 hours in preincubation buffer and the [^99m Tc] compound 3.25 (385,000 cpm/200 μL) in a coplan jar, washed for 1 hour in cold Tris buffer, with one change of buffer, dipped in ice-cold water to remove buffer salts and allowed to dry at room temperature. Nonspecific binding was determined in the presence of 1 μM IPT. These slides were simultaneously exposed to DuPont x-ray film in an autoradiographic cassette for 18 hours. The exposed film was developed with a Kodak automatic film processor.

**Q.** With “2b-{oxo[N,N'-bis-(2'-mercaptoethyl)-ethylenediaminato)]rhenium (V)-methylamino}-3b-(4-chlorophenyl)tropane [Compound 1.22]” as the molecule, how does the pKi [1] read?
**A.** 7.85

**Q.** With CN1[C@H]2CC[C@@H]1[C@@H](CN(CCS)CCNCCS)[C@@H](c1ccc(Cl)cc1)C2 [Compound 1.16a] as the molecule, how does the pKi [1] read?
**A.** 8.15

**Q.** With CN1[C@H]2CC[C@@H]1[C@@H](C[N+]13CC[S][99Tc-]14(=[O])[S]CC[N]4CC3)[C@@H](c1ccc(F)cc1)C2 (stereo partly shown) [Compound 1.20a] as the molecule, how does the “Brain uptake, 2 min” value ([2]; rats, iv, 2 min) read?
**A.** 0.37 ± 0.09 % dose/organ

**Q.** And the “Brain uptake, 60 min” value ([2]; rats, iv)?
**A.** 0.098 ± 0.014 % dose/organ

**Q.** What about the “ST/CB ratio, 60 min” value (dopamine transporters [3]) of the same molecule?
**A.** 2.18 and 2.18 ± 0.32

**Q.** And the “Partition coefficient (P.C.), 1-octanol/pH 7.0 buffer” value [4]?
**A.** 99-1818 and 99

**Q.** With CN1[C@H]2CC[C@@H]1[C@@H](C(=O)[N+]13CC[S][99Tc-]14(=[O])[S]CC[N]4CC3)[C@@H](c1ccc(F)cc1)C2 (stereo partly shown) [Compound 1.20b] as the molecule, how does the “Brain uptake, 2 min” value ([2]; rats, iv, 2 min) read?
**A.** 0.31 ± 0.09 % dose/organ

**Q.** What about the “Brain uptake, 60 min” value ([2]; rats, iv) of the same molecule?
**A.** 0.07 ± 0.010 % dose/organ

**Q.** What about the “ST/CB ratio, 60 min” value (dopamine transporters [3]) of the same molecule?
**A.** 1.92 and 1.92 ± 0.28

**Q.** And the “Partition coefficient (P.C.), 1-octanol/pH 7.0 buffer” value [4]?
**A.** 99-1818 and 104

**Q.** With CN1[C@H]2CC[C@@H]1[C@@H](C[N+]13CC[S][99Tc-]14(=[O])[S]CC[N]4C(=O)C3)[C@@H](c1ccc(Cl)cc1)C2 (stereo partly shown) [Compound 1.21] as the molecule, how does the “Brain uptake, 60 min, footnote c” value ([2]; data from rats sacrificed at 30 minutes) read?
**A.** 0.07 ± 0.014 % dose/organ

**Q.** And the “Brain uptake lower than 1.19a and 1.19b” value ([2]; rats, iv, 2 min)?
**A.** at least 300%

**Q.** And the “Brain uptake, 2 min” value ([2]; rats, iv, 2 min)?
**A.** 0.11 ± 0.02 % dose/organ

**Q.** What about the “Brain uptake, 30 min” value ([2]; rats, iv, 30 min) of the same molecule?
**A.** 0.070 ± 0.014 % dose/organ

**Q.** And the “Brain uptake and specific striatal uptake, in words” value (dopamine transporters [3])?
**A.** lowest brain uptake

**Q.** What about the “ST/CB ratio, 30 min” value (dopamine transporters [3]; 30 min) of the same molecule?
**A.** 1.17

**Q.** What about the “ST/CB ratio, 60 min” value (dopamine transporters [3]) of the same molecule?
**A.** 1.17 ± 0.010

**Q.** And the “ST/CB ratio, 60 min” value (dopamine transporters [3]; listed as 21)?
**A.** 1.17

**Q.** What about the “Partition coefficient / lipophilicity, comparison in words” value [4] of the same molecule?
**A.** almost tenfold higher partition coefficient

**Q.** What about the “Partition coefficient (P.C.), 1-octanol/pH 7.0 buffer” value [4] of the same molecule?
**A.** 1818

**Q.** With COC(=O)[C@H]1[C@@H](c2ccc(Cl)cc2)C[C@@H]2CC[C@H]1N2CC[S][Re-]12(=[O])[S]CC[N+]1(C)CC[S]2 (stereo partly shown) [Compound 3.23] as the molecule, how does the pKi [1] read?
**A.** 9.52

**Q.** Which “Time for reaching optimal uptake ratio / equilibrium” value (dopamine transporters [5]; basal ganglia versus frontal cortex) does the source give for COC(=O)[C@H]1[C@@H](c2ccc(Cl)cc2)C[C@@H]2CC[C@H]1N2CC=CI [IPT, N-(3-iodopropen-2-yl)-2β-carbomethoxy-3β-(4-chlorophenyl)tropane, reference compound] here?
**A.** less than one hour

**Q.** What about the “Literature binding / localization / biodistribution, in words” value (dopamine transporters [5]; in vivo) of the same molecule?
**A.** much higher binding affinity and selectivity to dopamine reuptake sites

**Q.** What about the Autoradiographic regional labeling (dopamine transporters [6]) of the same molecule?
**A.** almost identical regional labeling pattern

**Q.** What about the pKd ([1]; data not shown, read-out: Kd of the radioligand [^125 I]IPT) of the same molecule?
**A.** 9.70
